Assay results published in patent publication US8017350B2, “Glimepiride- and insulin-induced glycosylphosphatidylinositol-specific phospholipase C regulation” (Sanofi-Aventis Deutschland GmbH, priority 2004, dated 2011).

Tested on: rat liver PI-PLC
Assay: mammalian PI-PLC assay
Format: biochemical
Conditions: 50 μM
Protocol: Hormone-sensitive lipase (HSL) and lipoprotein lipase (LPL) were measured using a radiolabeled triolein droplet emulsion as described in “Vertesy et al., (2002) Journal Antibiotics 55:480-494”. Pancreatic lipase (PL) was determined by incubation of 0.25 mmol tributyrin in 2 ml of 5 mM Tris/HCl (pH 6.5), 6 mM sodium taurodeoxycholate, 150 mM NaCl, 1 mM CaCl2 with porcine PL and colipase in the same buffer using a recording pH stat (stirring at 1000 rpm at 25° C.) with the pH adjusted to 6.5. PC-PLC was assayed by incubation of 0.2 ml of 10 mM dipalmitoyllecithin, 0.1 ml of 10 mM SDC and 0.1 ml of 0.03 M CaCl2 with bacterial PC-PLC (in 50 mM Tris/HCl, pH 7.5, 0.1% BSA) for 10 min at 37° C. The reaction was terminated by addition of 0.1 ml of 50% TCA and subsequently of 2.5 ml of […]. After centrifugation (1500×g, 15 min), 0.2-ml portions of the upper methanol/water phase (˜1.33 ml) were removed, supplemented with 0.5 ml of 60% HClO4, then heated at 170° C. for 1 h and finally analyzed for inorganic phosphate. Mammalian PI-PLC was measured by incubation of 0.1 ml of 10 mM PI, 0.1 ml of 0.8% sodium deoxycholate, 0.1% BSA, 0.2 ml of 100 mM sodium borate (pH 7.5) and rat liver PI-PLC for 20 min at 37° C. The reaction was terminated and further processed as described for the PC-PLC. […] Radioactive phosphatidic acid was detected by phosphorimaging. […]

## CCCCCCCCCCCCP1(=O)O[C@@H]2[C@H](O)[C@@H](O)[C@H](O)[C@@H](O)[C@@H]2O1 (stereo partly shown) [GPI-2350, myo-inositol-1,2-cyclo-dodecylphosphonic acid]
  effect on PI-PLC: not significantly affected
